According to patent US10369123B2, “Perk activator for the treatment of neurodegenerative diseases” (DEUTSCHES ZENTRUM FÜR NEURODEGENERATIVE ERKRANKUNGEN E.V. …, priority 2014, dated 2019):
Entries after “also recorded” stand apart in the source; their conditions may differ. Read-outs that look alike come from different tables or passages of the source.

How the values were obtained:
tau = experiment: Western blot of tau phosphorylation, 4R-tau overexpression model; assay type: cell-based, human; details: 4R-tau overexpressing lentivirus 8 days + PERK activator
Method: (§1) Nunc™ Nunclon™ Delta 6-well (for protein and mRNA) or 48-well (for cell assays) plates (Thermo Fisher Scientific, Waltham, Mass., USA) were coated with 100 μg/ml poly-L-lysine (Sigma-Aldrich, St. Louis, Mo., USA) and 5 μg/ml fibronectin (Sigma-Aldrich). LUHMES (Lund Human Mesencephalic) cells, derived from human embryonic ventral mesencephalic cells by conditional immortalization (Tet-off v-myc over-expression) were seeded out in a concentration of 130,000 cells/cm^2 to achieve a confluence of 50%. They were then differentiated for 8 days in a medium of DMEM/F12 (Sigma-Aldrich), 1 μg/ml tetracycline, […] and 490 μg/ml dbcAMP into post-mitotic neurons with a dopaminergic phenotype (Lotharius et al. 2005).
For all experiments with annonacin, the medium was replaced during the intoxication period with new medium containing glucose levels reduced to 250 μM, i.e. the physiological concentration in the human brain.
Concentrated lentiviral particles were titrated by transducing LUHMES cells with different dilutions at 6 hours after initiating differentiation. The lowest dilution at which at least 90% of cells expressed the transgene (as determined by immunohistochemistry of the cells fixed on day 2 post differentiation) was chosen for subsequent experiments. For these, concentrated lentiviral particles were again added into the medium on day 0, 6 hours after initiating differentiation.
(§2) Protein was extracted by scraping the cells from the culture plate with Mammalian Protein Extraction Reagent (M-PER, Thermo Fisher Scientific) and 1× cOmplete Protease Inhibitor Cocktail Tablets (Hoffmann-La Roche, Basel, Switzerland) and 1× PhosSTOP Phosphatase Inhibitor Cocktail Tablets (Hoffmann-La Roche). For pNRF2 blots, cells were extracted with 2% SDS tris-buffer instead of M-PER in order to obtain whole cell extracts and not to lose the nuclear fraction. […] Protein concentrations were determined using the BCA kit (Thermo Fisher Scientific) by heating the samples at 60° C. for 30 min and measuring the absorption on the NanoDrop 2000c Spectrophotometer (Thermo Fisher Scientific). […]

[1] = test system: 4R-tau and 3R-tau isoforms; experiment: Western blot of 3R-/4R-tau isoforms, annonacin model; assay type: cell-based, human; details: annonacin 25 nM + PERK activator, 48 h
Method: as §1, with “2005). […]” for “2005).”
as §2, with “Roche).” for “Roche). For pNRF2 blots, cells were extracted with 2% SDS tris-buffer instead of M-PER in order to obtain whole cell extracts and not to lose the nuclear fraction.”

[2] = test system: P301S tau transgenic mice; experiment: Morris water maze; assay type: in vivo, mouse; details: 2 mg/kg i.p. once daily, tested at 15 weeks of age
Method: (§3) All animal work was conducted either on CR57BL/6 mice, obtained from Charles River Laboratories, Wilmington, Mass., USA, or on homozygous transgenic mice overexpressing human tau with the P301S mutation on a C57BL/6 background, originally developed by Michel Goedert (Xu et al. 2014), obtained by own breeding. Animals were kept at 23±1° C. under standard 12 h light-dark cycle with free access to food and water. They were handled according to the EU Council Directive 2010/63/EU, the Guide for the Care and Use of Laboratory Animals (National Research Council 2011) and the guidelines of the local institutional committee. The experiments were authorized by the local authority “Regierung von Oberbayern” under application number 55.2-1-54-2532-165-13. […]
(§4) For the efficacy trial in the early disease stage (Xu et al. 2014), P301S mice (n=8 per group) and wild type littermates (n=9 per group) received once daily i.p. injections of 2 mg/kg CCT020312 or equivalent volumes of saline from 9 to 14 weeks of age; they were analyzed with the Morris Water Maze in the 15th week of age.
To analyze spatial learning and memory, the Morris water maze test was performed at 15 weeks of age (n=8 per group) in a cylindrical water basin (diameter 120 cm) filled with water with a depth of 31 cm. […] Tracks of training and probe trial were recorded with the computerized Viewer2 system (Biobserve, Mannheim, Germany).

[3] = test system: wild type and P301S tau mice; assay type: in vivo, mouse
Method: as §3, §4
For the efficacy trial in the late disease stage (Xu et al. 2014), P301S mice and wild type littermates received once daily i.p. injections of 2 mg/kg CCT020312 or saline from 17 to 22 weeks of age (n=12 for CCT020312 treated P301S mice, n=9 for other groups); they were analyzed with the Rotarod test in the 23rd week of age.

## CCN(CC)CCC(=O)N1N=C(c2c(-c3ccccc3)c3cc(Br)ccc3[nH]c2=O)CC1c1ccc(Br)cc1 (centres unmarked) [CCT020312, 6-bromo-3-[5-(4-bromo-phenyl)-1-(3-diethylamino-propionyl)-4,5-dihydro-1H-pyrazol-3-yl]-4-phenyl-1H-quinolin-2-one]
tau
  AD2-positive tau: not altered
  CP13 (Ser-202) phosphorylated tau: significantly reduced
  HT7-positive tau: not altered
[1]
  4R-tau protein amount: reduced
[2]; P301S tau mice, vs saline
  latency to find the hidden platform / learning curve: significantly improved; also recorded: steeper learning curve
[2]; wild type mice
  latency to find the hidden platform / learning curve: did not significantly affect; also recorded: did not change the learning curve
[3]; aged wild type and P301S tau mice, 2 mg/kg once daily for 6 weeks, until 23 weeks of age
  death or obvious signs of sickness during treatment: no CCT020312-treated wild type (n=9) and P301S tau mouse (n=12) died during the treatment period or showed any obvious signs of sickness
[3]; young wild type and P301S tau mice, 2 mg/kg for 6 weeks
  death or obvious signs of sickness during treatment: No CCT020312-treated mouse of the wild type group (N=8) and of the P301S tau group (N=8) died during the treatment period or showed any obvious signs of sickness
